Source: patent US7022882B2, “NMDA receptor channel blocker with neuroprotective activity” (priority 2000, dated 2006)
Several values for one entry are separate records, joined by “and”; a condition that tells them apart may be missing. Equal entries are not always repeated. Entries after “also recorded” stand apart in the source; their conditions may differ. Where two headings read alike, the source gives them in different places.

Key:
[1] = test system: cultured hippocampal neurons; test: Kainate induced neuronal cell death in hippocampal cultures; assay type: cell-based, rat; conditions: 20 μM CNQX, 10 μM MK-801, 10 μM memantine or 10 μM NBTA
Method: FIG. 7. NBTA protects cultured hippocampal neurons from NMDA receptor-mediated excitotoxic cell death. Trypan blue exclusion assays of (A) control neurons and neurons exposed to 200 μM NMDA in the absence (B) or presence of 10 μM memantine (C); and in the presence of 10 μM NBTA (D). (E) Normalized cell death in the absence and presence of the lead. (F) Neuronal death induced by kainate in the absence or presence of 20 μM CNQX, 10 μM MK-801, 10 μM memantine or 10 μM NBTA. Data are mean±s.e., n=2000.
To evaluate the specificity of the neuroprotective effect of NBTA<its activity against kainate induced neuronal cell death was assessed.
(§1) Mixed hippocampal neuron/glia primary cultures were employed to assess the neuroprotective activities of the identified lead against NMDA receptor-mediated excitotoxic cell death. Primary culture of rat hippocampal neurons were prepared as previously described (Ferrer-Montiel A. V., et al., Nat. Biotechnol., 16(3):286–91, 1998; Schinder A. F., et al.; J. Neurosci., 16(19):6125–33, 1996). In brief, hippocampi from E17–E19 rat embryos were first taken out and incubated at 4° C. in a saline (BSS) containing (mM): 137 NaCl, 3.5 KCl, 0.4 KH2PO4, 0.33 Na2HPO4.7H2O, 5 TES, and 10 glucose, pH 7.4. Hippocampi were then incubated in 0.25% trypsin (1×) solution from Hyclone at 37° C. for 15 min. Tissues were then washed and resuspended in minimal essential medium (Earle's salt) supplemented with 10% heat-inactivated horse serum (Hyclone), 10% fetal bovine serum (Hyclone), 1 mM […], 22 mM glucose, 20U/ml penicillin and 20 ug/ml streptomycin. Digested hippocampi were eventually dissociated by pipetting through a Pasteur pipette. Cells were plated at a density of 5×10^4 cells/cm^2.

[2] = test system: cultured rat hippocampal neurons; test: Excitotoxic assay in hippocampal cultures, NMDA challenge, trypan blue exclusion; assay type: cell-based; conditions: 200 μM NMDA and 20 μM glycine for 20 min; for protection from NMDA receptor-mediated cell death: 10 μM, cell death by NMDA alone = 100%
Method: as §1
Neurons cultured 14–17 days were used for the excitotoxic assays. Cultured medium was first removed and rinsed with BSS supplemented with 1 mM CaCl2, and 20 μM glycine. Neurons were challenged with 200 μM NMDA in the absence and presence of […] for 20 min at room temperature. The insults were terminated by removing the BSS containing NMDA. To reduce the excitotoxic effect due to the residual NMDA, the culture medium was supplemented with 20 μM MK-801. Cell cultures were returned to the incubator (37° C., 5% CO2). Cell death was assessed 20–24 hours after the challenge with trypan blue (0.04%) exclusion assays. Fraction of dead cells in cultures treated with control buffer (8±3%, n=2000) was subtracted as background.
NMDA insult alone caused significant cell death of 45±6% (n=2000). Neuroprotective activities as described in the Detailed Description of the Invention were expressed as percentage of net cell death in the absence and presence of 10 μM of the known NMDA receptor blockers and the identified compound. Cell death elicited by NMDA alone was considered as 100%. The assays were repeated in 4 separated occasions with different culture preparations.

[3] = target: T1, NMDA receptors (NR1/NR2A) (Homo sapiens, UniProt Q05586+Q12879); conditions: literature values; cited from earlier work
T1 sequence (Q12879 23-1464, other chains not shown): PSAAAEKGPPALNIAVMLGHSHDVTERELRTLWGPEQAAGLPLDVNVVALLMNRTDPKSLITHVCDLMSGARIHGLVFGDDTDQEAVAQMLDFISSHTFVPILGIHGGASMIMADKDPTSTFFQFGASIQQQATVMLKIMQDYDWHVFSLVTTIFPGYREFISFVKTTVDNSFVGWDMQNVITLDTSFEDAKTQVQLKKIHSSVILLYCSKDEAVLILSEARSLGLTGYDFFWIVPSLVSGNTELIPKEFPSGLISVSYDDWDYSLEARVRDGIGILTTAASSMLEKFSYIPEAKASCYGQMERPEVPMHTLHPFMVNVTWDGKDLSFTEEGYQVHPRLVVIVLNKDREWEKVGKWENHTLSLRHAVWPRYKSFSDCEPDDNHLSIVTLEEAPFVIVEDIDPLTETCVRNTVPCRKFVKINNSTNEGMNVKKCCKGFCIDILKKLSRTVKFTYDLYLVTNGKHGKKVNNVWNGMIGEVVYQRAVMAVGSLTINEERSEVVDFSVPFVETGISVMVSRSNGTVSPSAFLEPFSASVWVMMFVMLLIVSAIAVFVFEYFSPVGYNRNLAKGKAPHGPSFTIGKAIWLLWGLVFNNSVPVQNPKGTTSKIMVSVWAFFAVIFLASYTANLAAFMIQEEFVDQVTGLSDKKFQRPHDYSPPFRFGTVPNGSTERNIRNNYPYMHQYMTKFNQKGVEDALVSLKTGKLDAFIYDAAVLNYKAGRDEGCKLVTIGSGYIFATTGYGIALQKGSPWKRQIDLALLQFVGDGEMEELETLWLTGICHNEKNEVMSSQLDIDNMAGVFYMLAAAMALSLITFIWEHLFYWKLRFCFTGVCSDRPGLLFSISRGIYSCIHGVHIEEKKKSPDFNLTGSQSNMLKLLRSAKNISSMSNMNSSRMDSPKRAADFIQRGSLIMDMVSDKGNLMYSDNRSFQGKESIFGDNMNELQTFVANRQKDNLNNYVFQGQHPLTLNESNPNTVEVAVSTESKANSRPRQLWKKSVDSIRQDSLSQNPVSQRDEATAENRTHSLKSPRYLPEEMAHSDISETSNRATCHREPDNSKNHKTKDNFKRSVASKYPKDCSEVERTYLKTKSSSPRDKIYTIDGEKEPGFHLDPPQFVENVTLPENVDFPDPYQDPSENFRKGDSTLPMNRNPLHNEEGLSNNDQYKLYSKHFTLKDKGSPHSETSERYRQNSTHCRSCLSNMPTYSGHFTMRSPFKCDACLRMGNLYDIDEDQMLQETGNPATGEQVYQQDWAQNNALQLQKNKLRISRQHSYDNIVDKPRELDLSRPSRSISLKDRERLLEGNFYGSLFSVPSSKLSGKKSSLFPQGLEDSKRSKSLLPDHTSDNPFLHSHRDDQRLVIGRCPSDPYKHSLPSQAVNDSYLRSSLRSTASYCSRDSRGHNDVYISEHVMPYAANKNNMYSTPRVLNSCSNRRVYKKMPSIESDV

[4] = target: NMDA receptor, NR1 N616R (Homo sapiens, UniProt Q05586+Q12879, N616R); test: Block of NMDA receptor with NR1 N-site mutant N616R in oocytes; assay type: cell-based; conditions: versus wild type
NMDA receptor, NR1 N616R, sequence (Q12879 23-1464, other chains not shown): as above

[5] = target: NMDA receptor, N615G (Homo sapiens, UniProt Q05586+Q12879, N615G); test: Block of NMDA receptor with N615G mutation in oocytes; assay type: cell-based; conditions: versus wild type
Method: (§2) In contrast, mutations at N614G, N615G and S616G in the M2 segment had no effect on NBTA binding.
(§3) Oocytes of stage V and VI were surgically removed from the ovaries of […] anesthetized with 0.4% ethyl 3-amino-benzoate methanesulfonic acid-Clusters of oocytes were incubated with 2 mg/ml collagenase (Life Technologies, Gaithersburg, Md.) for 1 hour 20 min in Ca^2+-free solution comprised of (mM) 82.5 NaCl, 2.5 KCl, 1 MgCl2, 5 HEPES, pH 7.4 with vigorous agitation to remove the follicular cell layer. Oocytes were then washed extensively with the Ca^2+-free solution to remove the collagenase. Oocytes were eventually incubated in Barth's solution consisted of (in mM): 96 NaCl, 2 mM KCl, 1.8 CaCl2, 1 MgCl2, 5 HEPES supplemented with 100U/ml penicillin and 100 ug/ml streptomycin, pH 7.4 at 17° C. Oocytes were injected with 5–15 ng of cRNA encoding NR1 or its mutant premixed with three-fold amount of cRNA encoding NR2A.
(§4) On days two to six following injection of cRNAs, whole oocyte currents were recorded with standard two-electrode voltage-clamp. […] The blocking activities of the library were assessed at 10 μM (assuming the molecular weight is ˜500). […] Blocking activity of the mixture is expressed as fraction of response blocked by the mixture. […]

[6] = target: NMDA receptor, N614G (NR2 mutant) (Homo sapiens, UniProt Q05586+Q12879, N614G); test: Block of NMDA receptor with N614G mutation in oocytes; assay type: cell-based; conditions: versus wild type
Method: as §2, §3, §4

[7] = target: NMDA receptor, N616Q (NR1 mutant) with N614G (NR2 mutant) (Homo sapiens, UniProt Q05586+Q12879, N614G/N616Q); test: Block of NMDA receptor with coexpressed N616Q (NR1 mutant) and N614G (NR2 mutant) in oocytes; assay type: cell-based; conditions: versus N616Q alone
Method: as §2, §3, §4

[8] = target: NMDA receptor, S616G (Homo sapiens, UniProt Q05586+Q12879, S616G); test: Block of NMDA receptor with S616G mutation in oocytes; assay type: cell-based; conditions: versus wild type
Method: as §2, §3, §4

[9] = target: NMDA receptor, NR1 mutant (N616Q) (Homo sapiens, UniProt Q05586+Q12879, N616Q); test: Block of NMDA receptor with NR1 mutant N616Q in oocytes; assay type: cell-based; conditions: versus wild type
[10] = target: NMDA receptor, NR2A tryptophan 606 to leucine (Homo sapiens, UniProt Q05586+Q12879, W606L); test: Block of NMDA receptor with NR2A tryptophan 606 to leucine substitution in oocytes; assay type: cell-based; conditions: versus wild type
Method: as §2, §3, §4

[11] = target: T1, NMDA receptors (NR1/NR2A); test: Two-electrode voltage-clamp block of recombinant NMDA receptors expressed in Xenopus oocytes; assay type: cell-based
Method: Oocytes of stage V and VI were surgically removed from the ovaries of Xenopus oocytes anesthetized with 0.4% ethyl 3-amino-benzoate methanesulfonic acid-Clusters of oocytes were incubated with 2 mg/ml collagenase (Life Technologies, Gaithersburg, Md.) for 1 hour 20 min in Ca^2+-free solution comprised of (mM) 82.5 NaCl, 2.5 KCl, 1 MgCl2, 5 HEPES, pH 7.4 with vigorous agitation to remove the follicular cell layer. Oocytes were then washed extensively with the Ca^2+-free solution to remove the collagenase. Oocytes were eventually incubated in Barth's solution consisted of (in mM): 96 NaCl, 2 mM KCl, 1.8 CaCl2, 1 MgCl2, 5 HEPES supplemented with 100U/ml penicillin and 100 ug/ml streptomycin, pH 7.4 at 17° C. Oocytes were injected with 5–15 ng of cRNA encoding NR1 or its mutant premixed with three-fold amount of cRNA encoding NR2A.
On days two to six following injection of cRNAs, whole oocyte currents were recorded with standard two-electrode voltage-clamp. All electrophysiological studies, unless otherwise stated, were performed in Ba^2+/flufenamic-Ringer's solution (in mM: 10 HEPES pH7.5, 115 NaCl, 2.8 KCl, 2.0 BaCl2, 0.1 flufenamic, 0.1 niflumic acid) at ambient temperature as previously described (Ostresh J. M., et al., J. Org. Chem., 63:8622–8623, 1998; Nefzi A., et al., Tetrahedron, 55:335–344, 1999). Both current and voltage electrodes were filled with 3M KCl and have a tested resistance of 0.5–1 MOhm. The blocking activities of the library were assessed at 10 μM (assuming the molecular weight is ˜500). […] Inward currents were elicited from a holding potential of −80 mV except where indicated. […] Blocking activity of the mixture is expressed as fraction of response blocked by the mixture. Dose-response curves were fitted to the Hill equation:
[formula] where y is the ratio of current in the presence and presence of blocker, [x] is the blocker concentration, and IC50 and nH represent the concentration blocks 50% of response and Hill coefficient, respectively. Current-voltage relationships were measured first in the absence and then in the presence of a given concentration of lead at a specified membrane holding potential, and the ratio of these currents was plotted as a function of the holding potential. Analysis of the voltage dependent block current was performed according to the model proposed by Woodhull (Woodhull A. M., J. Gen. Physiol., 61:687–708, 1973). Data were fitted with the equation according to Zarei and Dani (Zarei M. M. and Dani J. A., J. Gen. Physiol., 1103(2):231–48, 1994):
[formula] where Ib and Ic are currents recorded during the blockade and control, respectively; [B] is the concentration of the blocker; Kd is the dissociation constant of the blocker at 0 mV; δ is the fraction of the membrane field sensed by the blocker as it binds to its site; V is the command voltage; R is the gas constant; T is the absolute temperature; F is the Faraday's number; z is the valence of the blocker.

[12] = target: T2, non-NMDA glutamate receptor GluR1 (Homo sapiens, UniProt P42261); test: Two-electrode voltage-clamp block of GluR1 expressed in Xenopus oocytes; assay type: cell-based
T2 construct: expressed in transfected cells
T2 sequence (P42261 19-906): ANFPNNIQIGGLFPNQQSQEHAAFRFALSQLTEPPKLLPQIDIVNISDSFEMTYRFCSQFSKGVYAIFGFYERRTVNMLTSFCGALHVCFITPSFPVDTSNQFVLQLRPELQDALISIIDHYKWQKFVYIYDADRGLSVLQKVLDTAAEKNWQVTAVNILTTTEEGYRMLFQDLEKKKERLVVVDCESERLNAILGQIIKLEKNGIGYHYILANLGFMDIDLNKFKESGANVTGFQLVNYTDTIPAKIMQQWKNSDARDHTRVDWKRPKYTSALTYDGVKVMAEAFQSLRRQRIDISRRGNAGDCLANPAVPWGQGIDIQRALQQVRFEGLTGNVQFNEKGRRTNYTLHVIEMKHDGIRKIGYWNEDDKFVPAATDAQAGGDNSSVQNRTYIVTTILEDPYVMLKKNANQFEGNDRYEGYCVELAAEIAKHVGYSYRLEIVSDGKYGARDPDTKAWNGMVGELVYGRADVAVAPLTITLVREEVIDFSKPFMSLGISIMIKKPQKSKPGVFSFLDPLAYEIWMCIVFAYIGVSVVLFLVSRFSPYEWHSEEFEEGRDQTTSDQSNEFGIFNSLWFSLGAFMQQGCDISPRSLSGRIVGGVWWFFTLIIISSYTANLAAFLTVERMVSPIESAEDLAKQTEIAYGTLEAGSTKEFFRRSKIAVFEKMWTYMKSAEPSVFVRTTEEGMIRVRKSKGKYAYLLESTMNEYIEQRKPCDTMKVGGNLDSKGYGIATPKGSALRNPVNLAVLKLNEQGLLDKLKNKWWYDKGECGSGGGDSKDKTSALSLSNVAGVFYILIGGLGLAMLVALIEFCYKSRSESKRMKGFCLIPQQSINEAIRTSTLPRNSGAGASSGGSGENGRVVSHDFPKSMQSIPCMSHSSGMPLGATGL
Text: Recombinant NMDA receptor subunits, NR1 (Planells-Cases R, et al., Proc. Natl. Acad. Sci. USA, 90(11):5057–61, 1993) and NR2A (Le Bourdelles B, et al., J. Neurochem., 62(6):2091–8, 1994) was used for screening the dipeptidomimetic combinatorial library. cDNAs of NR1 and NR2A were linearized with NOT1. cRNAs encoding NR1 and NR2A were synthesized from the linearized cDNAs templates according to manufacturer specifications (Ambion). NR1 mutant (N616Q) was used to examine the site of action of the identified lead. The NR1A mutants were linearized with NOT1 and use of T7 for sense. cDNA of human glutamate receptor/GluR1 (Sun W., et al., Proc. Natl. Acad. Sci. USA, 89:1443–1447, 1992) was linearized with Hind III and the use of T3 promoter for the synthesis of its […]. cDNAs were quantified by spectroscopy and the quality were assessed by gel electrophoresis. […]
as §4

N#Cc1cc2c(cc1[N+](=O)[O-])=NC(=O)C(=O)N=2 [CNQX, 6-cyano-7 nitroquinoxaline-2,3-dione]
effect on neuronal cell death induced by kainate [1]: protects neurons

C[C@]12N[C@H](Cc3ccccc31)c1ccccc12 [MK-801]
protection from NMDA receptor-mediated cell death [2]: 89±1% | effect on neuronal cell death induced by kainate [1]: protect neurons as well, though not as effectively as CNQX

[Mg+2] [Mg^2+]
δ, fraction of the membrane field sensed by the blocker [3]: ~0.77

CCC(C)C(N)CN(Cc1ccccc1)C(CNCc1ccccc1)Cc1ccc(O)cc1 (stereo not shown) [NBTA]
reduction of blocking activity by N616R substitution [4]: 275 fold | effect of N615G mutation on binding [5]: no effect | effect of N614G mutation on binding [6]: no effect | binding with coexpressed N616Q and N614G compared with N616Q alone [7]: similar | effect of S616G mutation on binding [8]: no effect | change of blocking activity by replacement of N616 for glutamine [9]: only slightly reduces | protection from NMDA receptor-mediated cell death [2]: 83±2% | reduction of blocking activity by tryptophan to leucine substitution in NR2A [10]: 4.7 fold | use dependence of NMDA receptor block ([11]; 0.1 μM, repetitive pulses of glutamate (200 μM) and glycine (20 μM), -80 mV): progressive block; also recorded: progressive blockade | block of NMDA current ([11]; 1 μM compound, -80 mV): 70±3% and ~95% | IC50 ([11]; Hill equation fit, n=6, read-out: IC50, wild-type NMDA receptors (NR1/NR2A)): 0.08 µM | δ, fraction of the membrane field sensed by the blocker ([11]; Woodhull model of voltage-dependent block): 0.56 | fraction of transmembrane electric field traversed to reach binding site ([11]; from δ): ~56% | voltage dependence of NMDA current reduction ([11]; voltage-ramp protocol, 200 μM L-glutamic acid plus 20 μM glycine): voltage-dependent | block of GluR1 ([12]; 1 μM): not | effect on GluR1 / AMPA receptors ([12]; even at 1 mM / mM concentration range): no effect at all | effect on neuronal cell death induced by kainate [1]: no effect

CN[C@H](CC(=O)O)C(=O)O [NMDA, N-methyl-D aspartate]
cell death induced by NMDA ([2]; no blocker): 50±3% and 45±6%

CC12CC3CC(C)(C1)CC(N)(C3)C2 [memantine, 1-amino-3,5-dimethyladamantane]
δ, fraction of the membrane field sensed by the blocker [3]: ~0.77 | protection from NMDA receptor-mediated cell death [2]: 93±1% | effect on neuronal cell death induced by kainate [1]: protect neurons as well, though not as effectively as CNQX
